Assay results: patent US8178579B2, “Dioxanes and uses thereof” (President and Fellows of Harvard College, priority 2001, dated 2012)
Entries after “also recorded” stand apart in the source; their conditions may differ.

What was measured:
α-tubulin deacetylation = test: acetylated α-tubulin in cells (AcTubulin cytoblot, immunofluorescence, Western blot); format: cell-based, human; details: for effect on tubulin deacetylation / α-tubulin acetylation in cells: A549 (also BS-C-1) cells, tubacin/JCWII114, niltubacin/JCWII153 2 μM, TSA 100 nM-4 μM, library ~2-5 μM, 18 h
Method: A549 cells were seeded at a density of 4,000 cells/50 μl in DMEM+ in white tissue culture-treated 384-well plates (Nalge Nunc) using a Multidrop 384 liquid dispenser (Labsystems). Library small molecules were pinned twice (100-150 nl/pin) from ˜1 mM stock solutions (DMSO) and incubated for 18 hours. For the ITSA1+AcTubulin assay, ITSA1 (50 μM) was added four hours after pin-transfer of library molecules. Media was aspirated with a 16-channel wand. For the acetylated α-tubulin cytoblot (AcTubulin), 40 μl/well of fixation solution (3.7% formaldehyde (1:10 from 37% stock) in Tris-buffered saline (TBS, 0.15 M NaCl, 0.02 M Tris-Cl, pH 7.4) was added and plates incubated for twenty minutes at room temperature. After aspiration, 30 μl 100% methanol (−20° C.) was added and incubated for five minutes at room temperature. After aspirating and washing three times with 90 μl of antibody dilution buffer (ADB, TBS/2% bovine serum albumin, 0.1% TritonX-100) the wells were blocked for twenty minutes in ADB. After aspirating, 20 μl/well of ADB containing anti-acetylated α-tubulin antibody (mouse; 1:1000) and anti-mouse IgG horseradish peroxidase (HRP)-conjugated antibody (1:750) was added and incubated overnight (4° C.). For the anti-acetyl lysine cytoblot (AcLysine), 40 μl/well of fixation solution (95% ethanol/5% acetic acid, −20° C.) was added and plates incubated for five minutes at room temperature. Wells were aspirated, washed, and blocked in ADB as for the AcTubulin protocol. After aspirating, 20 μl/well of ADB containing anti-acetylated lysine (rabbit; 1:375) and anti-rabbit IgG-HRP conjugated antibody (1:750) was added and incubated overnight (4° C.). For the anti-acetylated histone H3 (AcHistH3) and anti-acetylated histone H4 (AcHistH4) cytoblots, cells were fixed, washed, and blocked in ADB as for the AcLysine cytoblot. After aspirating, 20 μl/well of ADB containing anti-acetylated histone H3 antibody (rabbit, 1:500) or anti-acetylated histone H4 antibody (rabbit, 1:500) was added and incubated for two hours at room temperature. Wells were aspirated and washed twice with 80 μl of ADB. After aspirating, 20 μl/well of ADB containing anti-rabbit IgG-HRP conjugated antibody (1:1000) was added and incubated for two hours (room temperature). For the AcTubulin and AcLysine assays, plates were washed three times with TBS before adding 20 μl/well of enhanced chemiluminescent (ECL) mixture. For the AcHistH3 and AcHistH4 assays, plates were washed three times with 80 μl TBS with 1% Triton X-100 and once with 80 μl TBS before adding 20 μl/well of ECL mixture. Plates were read on an Analyst plate reader (LJL Biosystems) with an integration time of 0.1 seconds.
1,3-dioxanes from single polystyrene macrobeads were prepared as 1-2 mM stock solutions in DMSO as described [Hubbert, C., Guardiola, A., Shao, R., Kawaguchi, Y., Ito, A., Nixon, A., Yoshida, M., Wang, X. F., and Yao, T. P. (2002). HDAC6 is a microtubule-associated deacetylase. Nature 417, 455-458]. Bead decoding and structure determination were as described [See for example, Hubbert, C., Guardiola, A., Shao, R., Kawaguchi, Y., Ito, A., Nixon, A., Yoshida, M., Wang, X. F., and Yao, T. P. (2002). HDAC6 is a microtubule-associated deacetylase. Nature 417, 455-458; and Piperno, G., LeDizet, M., and Chang, X. J. (1987). Microtubules containing acetylated alpha-tubulin in mammalian cells in culture. J. Cell Biol. 104, 289-302]. Small molecules (˜2-5 μM) of interest were retested using a sample from the plate of stock solutions by fluorescence microscopy and comparison to the effects of trichostatin (300 nM to 1 μM).
A549 cells were seeded at a density of 50,000/200 μl in DMEM+ on the surface of glass coverslips on top of Parafilm in a 10 cm dish and allowed to attach overnight. For detection of acetylated α-tubulin, cells were permeabilized and fixed with 100 mM K-PIPES, pH 6.8, 10 mM EGTA, 1 mM MgCl2, 0.2% triton X-100, 0.2% glutaraldehyde for fifteen minutes. […]

HDAC6 = test: acetylated α-tubulin and HDAC6 immunofluorescence in control (Neo) and HDAC6-overexpressing fibroblasts; format: cell-based, mouse; details: tubacin 2 μM, 4 h
Method: All cells were cultured at 37° C. in a humidified incubator supplemented with 5% carbon dioxide. […] Mouse NIH-3T3 wild-type (Neo), HDAC6, HDAC6 double mutant, and HDAC1 overexpressing cells (gift from C. Hubbert, Duke University) were cultured as described (C. Hubbert et al., Nature 417, 455 (2002)1).
Detection of acetylated α-tubulin and acetylated histones by immunofluorescence was performed as described in Example 6 above. […] HDAC6 was detected using a rabbit polyclonal antibody (1:250-1:750; C.M.G., unpublished data) under the conditions used to detect acetylated α-tubulin (See Example 6 above). […] Images for these experiments were collected on a Zeiss LSM510 confocal scanning laser microscope at the appropriate wavelengths using the accompanying software and processed with Adobe Photoshop.

Row | Compound | effect on tubulin deacetylation / α-tubulin acetylation in cells (α-tubulin deacetylation) | effect on tubulin deacetylation / α-tubulin acetylation in cells (α-tubulin deacetylation; listed as 415 N3) | effect on tubulin deacetylation / α-tubulin acetylation in cells (α-tubulin deacetylation; listed as JCWII114) | concentration at which α-tubulin acetylation is increased (α-tubulin deacetylation; A549 cells, 4 h, data not shown) [nM] | co-localization of HDAC6 with acetylated microtubules (HDAC6; NIH-3T3 (Neo)) | α-tubulin acetylation in control (Neo) versus HDAC6-overexpressing NIH-3T3 cells (HDAC6)
1 | CC(/C=C/C(=O)NO)=C\[C@@H](C)C(=O)c1ccc(N(C)C)cc1 [TSA, trichostatin A, reference compound] | an inhibitor of both α-tubulin and histone deacetylation; also recorded: Increased α-tubulin acetylation upon TSA (4 μM) treatment (24 h) | – | – | – | – | –
2 | O=C(CCCCCCC(=O)Nc1ccc([C@@H]2OC(c3ccc(CO)cc3)C[C@H](CSc3nc(-c4ccccc4)c(-c4ccccc4)o3)O2)cc1)NO (stereo partly shown) [tubacin] | Increased acetylated α-tubulin induced by tubacin; also recorded: Reversibility of tubacin-induced (2 μM; 5 h) α-tubulin acetylation; also recorded: strongly increased α-tubulin acetylation levels; also recorded: potent (FIG. 41E), selective (FIG. 41F; FIG. 46A), and reversible (FIG. 46B) inhibitor of α-tubulin deacetylation; also recorded: always increased α-tubulin acetylation levels | strongly increased α-tubulin acetylation | potently and selectively inhibited tubulin deacetylation | ≥ 125 | Increased co-localization of HDAC6 with acetylated α-tubulin; also recorded: caused an increase in the co-localization of HDAC6 along acetylated microtubules | Decreased α-tubulin acetylation upon tubacin (2 μM) treatment (4 h) of HDAC6 overexpressing compared to control (Neo) NIH-3T3 cells; also recorded: induced an increase in α-tubulin acetylation; also recorded: decreased tubucin-induced α-tubulin acetylation
